# Reference: US12582648B2 (BIOPROJET Pharma, priority 2020, dated 2026)
# Columns and labels:
# [1] = test system: monosynaptic spinal cord reflex; assay: Monosynaptic response in the isolated spinal cord of rat pups (rat model of RLS); conditions: for inhibition of the monosynaptic reflex: reference agonists applied to isolated rat spinal cord
# Experimental: RLS is believed to reflect an abnormal sensitivity of spinal stretch reflexes. These reflexes are modulated in an inhibitory fashion by dopamine released in the dorsal horn from a descending dopaminergic projection arising from A11 dopamine cells in the hypothalamus.
# Electrophysiological responses i.e. motor action potentials recorded on the ventral root of isolated spinal cord from rat pups following stimulation of the dorsal root were analyzed.
# healthy smokers = assay: Weight gain during smoking cessation, double blind clinical trial; format: in vivo, human; conditions: for weight increase: after twelve weeks; for weight increase compared to the weight before treatment: twelve further weeks after the end of treatment
# [2] = test system: 160 other receptors, channels or enzymes; assay: Activity at 160 other receptors, channels or enzymes
# [3] = biological target: T1, human dopamine D2 short isoform (Homo sapiens, UniProt P14416); assay: Calcium fluxes assay of D2-receptor activation/inhibition (HEK293 cells); format: cell-based; conditions: calcium flux; for agonist behaviour at D2 receptor: BP1.4979 at concentrations up to 1,000 nM; for EC50: HEK293 cells, human D2 short isoform
# T1 construct: expressed in transfected cells; host or cells: HEK293 cells
# T1 sequence (P14416 1-414 isoform P14416-2): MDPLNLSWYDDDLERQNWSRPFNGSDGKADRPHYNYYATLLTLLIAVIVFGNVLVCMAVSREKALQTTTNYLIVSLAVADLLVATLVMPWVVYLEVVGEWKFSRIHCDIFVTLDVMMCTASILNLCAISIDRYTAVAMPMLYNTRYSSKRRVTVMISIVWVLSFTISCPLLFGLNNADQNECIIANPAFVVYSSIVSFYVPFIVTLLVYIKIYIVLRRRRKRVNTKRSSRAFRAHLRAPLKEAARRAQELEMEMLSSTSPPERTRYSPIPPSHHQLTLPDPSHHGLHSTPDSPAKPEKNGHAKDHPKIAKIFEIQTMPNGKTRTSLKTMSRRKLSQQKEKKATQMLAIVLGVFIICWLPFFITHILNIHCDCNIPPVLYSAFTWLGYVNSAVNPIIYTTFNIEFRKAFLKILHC
# Experimental: Calcium Fluxes Assay of D2-Receptor Activation/Inhibition
# HEK293 cells expressing the human dopamine D2 short isoform were used to evaluate the potential agonist property of test compounds. Cells were loaded with Fluo-4-AM solution supplemented with sulfinpyrazone then plated in a 96-well plate and introduced in a FLEX station for fluorescence measurement following calcium transients.
# Responses were calculated as the maximum minus the minimum fluorescence counts (Fmax−Fmin).
# human D2 receptor = human D2 receptor (Homo sapiens, UniProt P14416); assay: Affinity at the human D2 receptor; format: binding
# human D2 receptor, sequence (P14416 whole entry): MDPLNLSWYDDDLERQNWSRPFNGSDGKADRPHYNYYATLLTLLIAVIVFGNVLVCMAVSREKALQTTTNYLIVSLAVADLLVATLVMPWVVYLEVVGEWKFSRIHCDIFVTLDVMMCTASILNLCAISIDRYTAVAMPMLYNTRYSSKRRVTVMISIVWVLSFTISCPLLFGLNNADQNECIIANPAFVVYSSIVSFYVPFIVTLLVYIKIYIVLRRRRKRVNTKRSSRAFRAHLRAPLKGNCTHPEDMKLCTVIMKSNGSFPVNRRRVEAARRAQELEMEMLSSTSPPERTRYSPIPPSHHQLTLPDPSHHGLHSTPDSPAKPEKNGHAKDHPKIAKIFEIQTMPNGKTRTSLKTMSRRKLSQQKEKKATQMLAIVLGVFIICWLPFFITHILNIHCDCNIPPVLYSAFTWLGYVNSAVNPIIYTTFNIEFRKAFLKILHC
# [4] = biological target: human dopamine D3 receptor (Homo sapiens, UniProt P35462); assay: Mitogenesis assay of D3-receptor activation ([3H]-thymidine incorporation, CHO cells); format: cell-based; conditions: for agonist behaviour (partial / full): human D3 receptor
# human dopamine D3 receptor, sequence (P35462 whole entry): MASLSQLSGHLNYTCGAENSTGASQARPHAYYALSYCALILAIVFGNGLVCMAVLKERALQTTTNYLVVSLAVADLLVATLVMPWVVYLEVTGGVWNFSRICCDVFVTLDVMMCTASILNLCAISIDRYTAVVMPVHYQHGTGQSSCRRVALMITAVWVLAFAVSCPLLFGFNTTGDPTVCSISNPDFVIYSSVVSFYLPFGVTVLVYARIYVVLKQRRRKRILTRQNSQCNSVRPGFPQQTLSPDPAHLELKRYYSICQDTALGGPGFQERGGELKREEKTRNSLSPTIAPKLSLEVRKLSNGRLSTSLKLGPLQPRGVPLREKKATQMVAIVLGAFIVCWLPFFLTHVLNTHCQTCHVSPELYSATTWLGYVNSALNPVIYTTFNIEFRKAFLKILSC
# Experimental: Mitogenesis Assay of D3-Receptor Activation
# Chinese hamster ovary (CHO) cells stably expressing the human dopamine D3 receptor were plated overnight in 96-well plates. Cells were then washed with serum-free medium, and incubated 20 h with various concentrations of ligands. Tritiated thymidine was added for a 4 hour-pulse. Then, the cells were detached with trypsin/EDTA, transferred in GF/C multiscreen microplates, rinsed with ice-cold PBS and ethanol and dried. [^3H]-Thymidine incorporation was measured by liquid scintillation in a MicroBeta counter.
# Results are expressed as percentage of the maximal [^3H]-thymidine incorporation yielded with the full agonist quinelorane.
# human D3 receptor = biological target: T2, human D3 receptor (Homo sapiens, UniProt P35462); assay: GTPγ35S binding assay at D3 dopamine receptor (CHO cell membranes); format: biochemical; conditions: GTPγ[35S] assay, dopamine as full agonist reference
# T2 construct: expressed in transfected cells
# T2 sequence (P35462 whole entry): as above
# Experimental: Thawed membranes from CHO cells stably expressing human D3 receptor were diluted at a final concentration of 5 μg/180 μL/well in a binding buffer containing HEPES 50 mM, MgCl2 3 mM, NaCl 140 mM, GDP 4 μM, pH=7.4 and distributed in 96 well polystyrene microplate. […] After transfer in a Millipore GF/C HTS® microplate, the filtration of the reactional mix followed by a three time 250 μl wash put an end to the reaction. The filter-bound radioactivity was measured in a liquid scintillation counter Microbeta with 70 μl of scintillation fluid.
# RLS patients = assay: Double-blind placebo-controlled clinical trial in restless legs syndrome; format: in vivo, human; conditions: 15 mg twice a day for two weeks
# Experimental: Clinical Studies: Efficacy of BP1.4979 in Restless Legs Syndrome (Randomized, Double Blind Parallel Groups Sequential, Placebo Controlled, Clinical Trial)
# The double-blind trial was conducted on 29 patients.
smiles,measurement,setting,value
"CCCN(CCC)C1CCc2ccc(O)cc2C1 (stereo not shown) [7-OHDPAT, reference compound]",inhibition of the monosynaptic reflex,[1],total or nearly total inhibition
"COCCC(=O)N[C@H]1CC[C@H](CCN2CCN(c3cccc(C#N)c3)CC2)CC1 [BP1.4979, N-(4-{2-[4-(3-Cyanophenyl)piperazin-1-yl]ethyl}cyclohexyl)-3-methoxypropanamide]",weight increase,healthy smokers; 3 mg once a day,0.9 kg
same,weight increase compared to the weight before treatment,healthy smokers; 3 mg once a day,2.0 kg
same,weight increase,healthy smokers; 10 mg once a day,0.5 kg
same,weight increase compared to the weight before treatment,healthy smokers; 10 mg once a day,1.4 kg
same,weight increase,healthy smokers; 15 mg once a day,0.0 kg
same,weight increase compared to the weight before treatment,healthy smokers; 15 mg once a day,0.2 kg
same,"activity at 160 other receptors, channels or enzymes",[2],inactive
same,blockade of the effect of dopamine or agonists,[3]; antagonist mode,block completely
same,agonist behaviour at D2 receptor,[3],failed to activate the receptor
same,behaviour at the human D2 receptor,human D2 receptor,pure antagonist
same,Emax,"[4]; CHO, read-out: intrinsic activity",30%
same,EC50,"[4]; mitogenesis, CHO cells expressing human D3 receptor",0.7 nM
same,agonist behaviour (partial / full),[4]; mitogenesis,partial agonist
same,partial activity,human D3 receptor,< 5%
same,nausea and vomiting side-effects,RLS patients,no patient reported any symptom related to nausea nor did had vomiting episodes
same,inhibition of the synaptic transmission,"[1]; 30 nM, stimulation 40 V, 50 μs of the dorsal root",inhibited fully
same,amplitude of the post-synaptic response on the ventral root,"[1]; another series of experiments, supraliminar stimulation of the dorsal root",dose dependently inhibited
same,effect on post-synaptic response in the presence of the dopamine D3 antagonist BP1.4096,[1]; in the presence of BP1.4096,prevented
"NCCc1ccc(O)c(O)c1 [Dopamine, dopamine, reference compound]",inhibition of the monosynaptic reflex,[1],total or nearly total inhibition
CCCN(CCC)CCc1cccc2c1CC(=O)N2 [Ropinirole],EC50,[3],20 nM
same,agonist behaviour at D2 receptor,[3],full agonists
same,agonist behaviour (partial / full),[4]; mitogenesis,full agonists
CCCN(CCc1cccs1)[C@H]1CCc2c(O)cccc2C1 [Rotigotine],EC50,[3],0.3 nM
same,agonist behaviour at D2 receptor,[3],full agonists
